Laboratory results as given in patent US5589472A, “Diindolo compounds and pharmaceutical compositions containing them” (priority 1995, dated 1996).
pIC50: −log10 of the molar value. Read-outs that look alike come from different tables or passages of the source.

Columns and labels:
[1] = molecular target: Protein Kinase C ("PKC"); assay: Protein Kinase C (PKC) in vitro inhibition (histone III-S phosphorylation); assay type: biochemical; conditions: partially purified rat brain PKC, 5 μM ATP, 23° C., 15 minutes
Method: A. Protein Kinase C ("PKC") Protocol
Protein Kinase C (PKC) was partially purified from rat brain by chromatography on DEAE-Sephacel according to Shearman et al, Methods in Enzymology […] (1989) and Bishop et al, Biochemical Pharmacology 40:2129-2135 (1990)which are hereby incorporated by reference. PKC was assayed in a reaction mixture (0.25 mL total volume) containing: 20 mM Tris-HCl (pH 7.5); 200 μg/mL histone III-S 10 mM MgCl2; 5 μM [γ-^32 ] ATP (4×10^6 cpm/nmol); 200 μM CaCl2; 32 μg/mL phosphatidylserine; 1.6 μg/mL 1-oleoyl-2-acetyl glycerol and various concentrations of compounds of formula I of the invention were added from stock solutions in dimethylsulfoxide (DMSO). The final concentration of DMSO in the reaction was 2%. Reactions were started by addition of approximately 7 μg of partially purified PKC and allowed to proceed at 23° C. for 15 minutes. Reactions were terminated by addition of 1 mL of ice-cold 15% trichloracetic acid and 1 mL of cold 0.5 mg/mL bovine serum albumin to precipitate the histone III-S substrate. After 10 minutes on ice, precipitated phosphoproteins were collected on Whatman GF/C filters using a Brandel cell harvester. Filters were placed in scintillation vials with 5 mL of Ready Safe scintillation cocktail and radioactivity trapped on the filter was quantitated by liquid scintillation counting. Percent inhibition of PKC activity was calculated relative to the activity observed in the DMSO controls.

[2] = test system: HT1080 human fibrosarcoma cells; assay: Tumor Cell Invasion Assay (Matrigel); assay type: cell-based; conditions: HT-1080, @ 45 μg/mL, 5 hours at 37° C.
Method: Tumor Cell Invasion Assay
The cell invasion assay quantitates the ability of malignant cells to invade a reconstituted basement membrane matrix. The assay is performed essentially as described in the two articles which are cited at the end of this sentence and which are herein incorporated by reference. Kramer et al Invasion of reconstituted basement membrane matrix by metastatic tumor cells. Cancer Res. 46: […]; and Albini et al A Rapid in vitro assay for quantitating the invasive potential of tumor cells. Cancer Res. 3239-3245, 198. Modifications were made to permit evaluation of pharmacologic effectors in this system and to increase screening throughput.
Polyvinylpyrrolidone-free polycarbonate filters (25×80 mm; 8 μm pore size (Nucleopore, Pleasantan, Calif.) were coated with 100 μg human fibronectin (Boehringer-Mannheim Corp., Indianapolis, Ind.) for 1 hour, permitted to air dry 5 to 10 minutes, and then coated overnight with Matrigel (500 μg/filter; Collaborative Research, Bedford, Mass.). Filters were then rehydrated with serum-free DMEM and assembled into 48-microwell chemotaxis chambers (Neuroprobe, Cabin Johbn, Md.). See Blood et al Identification of a tumor cell receptor for VGVAPG, an elastin-derived chemotactic peptide. J. Cell Biol. 107:1987-1994, 1988 which is herein incorporated by reference. Compounds tested were placed in upper wells of the chambers with HT1080 human fibrosarcoma cells (3.5×10^4 cells/well). For primary screens the final concentration of compounds was 45 μg/ml.
Chambers were incubated for 5 hours at 37° C. in a 5% CO2 humidified atmosphere. After incubation chambers were disassembled and the filters were fixed and stained with Diff-Quik reagents (Baxter Scientific, McGaw Park, Ind.). […] The filter was then mounted between 2 glass slides and tumor cells that had invaded the Matrigel barrier in each microwell were quantitated as "% area covered by cells" with a Cue-2 Image Analysis System (Olympus Corp., Lake Success, N.Y.). When assayed under these conditions HT1080 cells (with or without Dimethylsulfoxide (DMSO) as a vehicle control) typically invade such that 34-40% surface is covered by cells and an invasion to this degree is defined as 100% invasion for the purposes of this test. Effects of compounds on the invasion are expressed as % inhibition based on the value obtained with vehicle control.

[3] = test system: Superoxide generation in human neutrophils; assay: Neutrophil test: inhibition of superoxide generation in human neutrophils; assay type: cell-based; conditions: 0.25 h, SO release induced by fMLP (100 nM) or PMA (100 nM), stimulus not stated, 15 minutes at 37° C.
Excerpt: Inhibition of Superoxide Generation in Human Neutrophils
One of the histological changes which occurs in psoriasis is infiltration of neutrophils into epidermis and dermis. Superoxide (SO) generation by neutrophils causes oxidative tissue damage during inflammatory processes. PKC plays an essential role in SO release in neutrophils. Formyl peptides (fMLP), important chemoattractants involved in cell recruitment to local inflammatory sites, promote the release of SO anion. The tumor promoting phorbol ester, phorbol-12 myristate-13-acetate (PMA), also induces SO release.
Neutrophils were prepared from human peripheral blood. SO release was induced by fMLP (100 nM) or PMA (100 nM) and measured as SO dismutase-inhibitable reduction of cytochrome c. Preincubation of the compound tested with 3-5×10^6 cells was for 15 minutes in the presence of cytochalasin B ([…]) before addition of the stimulant, fMLP or PMA. 15 minutes after stimulation at 37° C., the reaction was stopped. The quantity of SO anion release was determined as the difference between the absorbance at 550 nm in the presence and absence of SO dismutase.
Antiinflammatory activity of the compounds of the invention was determined by use of the processes set forth in the following literature which is hereby incorporated by reference. Fischer et al Carcinogenesis 11:[…]; and Gupta et al Soc. Inv. Dermotol 91:5, 486-491, 1988 and Nakadate et al J. Pharmacolo. 38 161-168,(1985); and Viaje et al Cancer Res. 37,1530-1536, 1977.

[4] = test system: Mouse skin; assay: Mouse Skin Assay (TPA-induced blister formation); assay type: in vivo; conditions: compound in acetone (25 μl), then TPA (12.5 μl); evaluated 18 hours after treatment
Method: Mice were treated first with compounds dissolved in acetone (25 μl), and then 30 seconds with TPA (12.5 μl). Blister formation was evaluated 18 hours after treatment. Each mouse was scored on a scale of 1-4 where 4 equals presence of a complete blister, 3 equals slight reduction in blister formation, 2 equals a 50% reduction in blister formation and 1 equals a complete absence of blisters.

[5] = read-out: IN VITRO INHIBITION OF PKC IC50 (nanomolar) except where otherwise indicated
[6] = read-out: IN VITRO INHIBITION OF PKC IC50 (unit indicated in cell)

pIC50 [1, 5]	pIC50 [3]	pIC50 [1, 6]	SMILES	inhibition at 45 µg/mL [2] [%]	Mouse Skin (active/inactive by visual evaluation of blister formation) [4]
7.77	–	–	O=C1NC(=O)c2c1c1c3ccccc3n3c1c1c2c2ccccc2n1CN(CCO)C3 [Compound 10]	72	–
6.92	–	–	C[C@@H]1n2c3ccccc3c3c4c(c5c6ccccc6n(c5c32)[C@@H](C)S1(=O)=O)C(=O)NC4=O (relative stereo) [trans-25]	–	–
7.62	< 5.00	–	N=C1NC(=O)c2c1c1c3ccccc3n3c1c1c2c2ccccc2n1CSC3 [Compound 17]	53	–
8.62	–	–	C[C@@H]1n2c3ccccc3c3c4c(c5c6ccccc6n(c5c32)[C@H](C)S1(=O)=O)C(=O)NC4=O [cis-25]	–	–
–	–	< 5.30	N=C1NC(=O)c2c1c1c3ccccc3n3c1c1c2c2ccccc2n1CN(Cc1ccccc1)C3 [Compound 1]	–	–
7.21	–	–	N=C1NC(=O)c2c1c1c3ccccc3n3c1c1c2c2ccccc2n1COC3 [Compound 15]	30	–
7.96	–	–	O=C1NC(=O)c2c1c1c3ccccc3n3c1c1c2c2ccccc2n1COC3 [Compound 16]	46	–
6.92	–	–	CN(C)CCN1Cn2c3ccccc3c3c4c(c5c6ccccc6n(c5c32)C1)C(=O)NC4=O [Compound 9]	52	–
6.84	–	–	O=C1NC(=O)c2c1c1c3ccccc3n3c1c1c2c2ccccc2n1CNC3 [Compound 4]	86	–
~6.30	–	–	COCCOCCOCCN1Cn2c3ccccc3c3c4c(c5c6ccccc6n(c5c32)C1)C(=O)NC4=N [Compound 11]	42	–
~7.00	–	–	COCCOCCOCCN1Cn2c3ccccc3c3c4c(c5c6ccccc6n(c5c32)C1)C(=O)NC4=O [Compound 12]	20	–
7.05	–	–	CN1Cn2c3ccccc3c3c4c(c5c6ccccc6n(c5c32)C1)C(=O)NC4 [Compound 13]	26	–
6.80	–	–	CN(C)CCN1Cn2c3ccccc3c3c4c(c5c6ccccc6n(c5c32)C1)C(=O)NC4=N [Compound 8]	46	–
7.72	< 5.00	–	O=C1NC(=O)c2c1c1c3ccccc3n3c1c1c2c2ccccc2n1C[S+]([O-])C3 [Compound 20]	–	–
–	–	< 4.30	O=C1NC(=O)c2c1c1c3ccccc3n3c1c1c2c2ccccc2n1CN(Cc1ccccc1)C3 [Compound 2]	35	–
8.15	–	–	O=C1NCc2c1c1c3ccccc3n3c1c1c2c2ccccc2n1CSC3 [Compound 19]	100	–
6.32	–	–	O=C(O)CN1Cn2c3ccccc3c3c4c(c5c6ccccc6n(c5c32)C1)C(=O)NC4=O [Compound 7]	0	–
6.82	–	–	CN1Cn2c3ccccc3c3c4c(c5c6ccccc6n(c5c32)C1)C(=O)NC4=N [Compound 5]	46	–
7.05	–	–	O=C1NC(=O)c2c1c1c3ccccc3n3c1c1c2c2ccccc2n1CN(O)C3 [Compound 3]	48	–
7.07	–	–	CN1Cn2c3ccccc3c3c4c(c5c6ccccc6n(c5c32)C1)C(=O)NC4=O [Compound 6]	66	–
8.30	6.05	–	O=C1NCc2c1c1c3ccccc3n3c1c1c2c2ccccc2n1CS(=O)(=O)C3 [Compound 23]	57	active
7.85	< 5.00	–	O=C1NC(=O)c2c1c1c3ccccc3n3c1c1c2c2ccccc2n1CSC3 [Compound 18]	18	–
8.70	5.80	–	O=C1NC(=O)c2c1c1c3ccccc3n3c1c1c2c2ccccc2n1CS(=O)(=O)C3 [Compound 26]	–	inactive
